Measured values: patent US20100216886A1, “POLYMORPHS OF N2-(1,1'-BIPHENYL-4-YLCARBONYL)-N1-[2-(4-FLUOROPHENYL)-1,1-DIMETHYLETHYL]-L-ALPHA-GLUTAMINE” (Wyeth, priority 2006, published 2010)
Converted amounts (≈) assume the structure as drawn.

Tests used:
Assay type in all cases: physicochemical
[1] = Dynamic Vapor Sorption (DVS) analysis; conditions: room temperature, 6-hour equilibration period
Excerpt: Sample F was subject to Dynamic Vapor Sorption (DVS) analysis at room temperature. The sample was first analyzed by Karl Fischer (KF) titration containing initial moisture content of 3.7% for the monohydrate form. RH cycling started at 50% relative humidity (RH) to 100% RH and down to 0% RH and then back up to 100% RH. A 3-hour/step equilibration period was found insufficient, so the run was repeated with a 6-hour period, which was still not sufficient.
As a result, an equilibrium moisture study using desiccators containing saturated salt solutions for humidity control was performed. Sample F was incubated at 0%, 15%, 31%, 66%, 87%, and 100% RH in room temperature for up to 20 days. Samples were periodically assayed by KF titration to give the kinetic profiles. XRD analysis was performed at the end of 20 days. The data is summarized in Table 8 with kinetic and equilibrium data plotted in FIGS. 18 and 19.

[2] = Equilibrium moisture study in desiccators with saturated salt solutions (KF, XRD); conditions: for Moisture (%) 1-day / Moisture (%) 3-day / Moisture (%) 7-day / Moisture (%) 20-day / XRD Polymorph / Moisture (%) 4-day: room temperature; for XRD Polymorph: end of 20 days
Method: As a result, an equilibrium moisture study using desiccators containing saturated salt solutions for humidity control was performed. […] Samples were periodically assayed by KF titration to give the kinetic profiles. XRD analysis was performed at the end of 20 days. The data is summarized in Table 8 with kinetic and equilibrium data plotted in FIGS. 18 and 19.

Solid state stability = assay: Solid state stability
Method: Sample F containing polymorph Form B was further investigated at 40° C./75% RH using open and closed vials for 3 months. […] Therefore, the monohydrate needs to be stored in hermetically sealed containers in order to prevent conversion to the sesquihydrate.

[3] = Polymorphic conversion study in aqueous media (2% Tween 80, water)
Excerpt: Polymorphic conversion of Form A to Form B was not observed with Sample D in 2% Tween 80 or water.
Polymorph pseudo Form A was obtained from a scaled up preparation of polymorph Form A (Sample E).
The polymorphic conversion appeared to be slower in water than in the 2% Tween suspension, probably due to the lower solubility in water.
DSC data also supported this observation (FIG. 11).

[4] = Solubility in water and 2% Tw80 of samples used in toxicological formulation assessments; conditions: 2% Tw80
Excerpt: Table 6 summarizes various solid-state properties of samples used in toxicological formulation assessments.

[5] = Slurry in water at 50° C. (polymorphic transformation); conditions: slurry in water at 50° C. for 12-24 hr
Method: Powder XRD patterns comparing the starting material to polymorph pseudo Form A are shown in FIG. 34, and DSC thermograms of both batches at 50° C. are shown in FIG. 35.

## CC(C)(Cc1ccc(F)cc1)NC(=O)[C@H](CCC(=O)O)NC(=O)c1ccc(-c2ccccc2)cc1 [Form B, N^2-(1,1′-biphenyl-4-ylcarbonyl)-N^1-[2-(4-fluorophenyl)-1,1-dimethylethyl]-L-α-glutamine]
[1]
  RH range in which the form is stable (DVS): 0-50 % RH
[2]; 0% RH
  Moisture (%) 1-day: 3.48%
  Moisture (%) 3-day: 3.55%
  Moisture (%) 7-day: 3.57%
  Moisture (%) 20-day: 2.78%
  XRD Polymorph: Pattern B, Form B
[2]; 15% RH
  Moisture (%) 1-day: 3.97%
  Moisture (%) 4-day: 3.99%
  Moisture (%) 7-day: 3.74%
  Moisture (%) 20-day: 3.79%
  XRD Polymorph: Pattern B, Form B
[2]; 31% RH
  Moisture (%) 1-day: 3.61%
  Moisture (%) 4-day: 5.01%
  Moisture (%) 7-day: 3.93%
  Moisture (%) 20-day: 3.79%
  XRD Polymorph: Pattern B, Form B
[2]; 47% RH
  Moisture (%) 1-day: 3.81%
  Moisture (%) 3-day: 3.73%
  Moisture (%) 7-day: 4.00%
  Moisture (%) 20-day: 4.19%
  XRD Polymorph: Pattern B, Form B
[2]; 66% RH
  Moisture (%) 1-day: 5.12%
  Moisture (%) 4-day: 5.28%
  Moisture (%) 7-day: 5.34%
  Moisture (%) 20-day: 5.1%
  XRD Polymorph: Pattern C, Form C
[2]; 84% RH
  Moisture (%) 1-day: 5.55%
  Moisture (%) 3-day: 5.43%
  Moisture (%) 7-day: 5.55%
  Moisture (%) 20-day: 5.71%
  XRD Polymorph: Pattern C, Form C
[2]; 100% RH
  Moisture (%) 1-day: 5.55%
  Moisture (%) 4-day: 8.08%
  Moisture (%) 7-day: 6.14%
  Moisture (%) 20-day: 6.22%
  XRD Polymorph: Pattern C, Form C
[2]; Sample F incubated at room temperature, 20 days, listed as monohydrate
  RH range at which the form is present by XRD: 0-47 % RH
[2]; initial, KF titration
  Moisture (%) T = 0: 3.82%
Solid state stability; 40 C./75% RH Closed, 4 wk
  HPLC Impurity (%): 0.34%
  KF (%): 5.35%
  XRD Polymorph: Form C Pattern C
Solid state stability; 40 C./75% RH Closed, 8 wk
  HPLC Impurity (%): 0.41%
  KF (%): 5.79%
  XRD Polymorph: Form C Pattern C
Solid state stability; 40 C./75% RH Open, 4 wk
  HPLC Impurity (%): 0.36%
  KF (%): 5.34%
  XRD Polymorph: Form C Pattern C
Solid state stability; 40 C./75% RH Open, 8 wk
  HPLC Impurity (%): 0.49%
  KF (%): 5.53%
  XRD Polymorph: Form C Pattern C
Solid state stability; 40° C./75% RH
  Duration of sufficient heat stability: at least 3 months
Solid state stability; Initial, time 0
  HPLC Impurity (%): 0.30%
  KF (%): 3.82%
  XRD Polymorph: Form B Pattern B

## CC(C)(Cc1ccc(F)cc1)NC(=O)[C@H](CCC(=O)O)NC(=O)c1ccc(-c2ccccc2)cc1 [Sample E, N^2-(1,1′-biphenyl-4-ylcarbonyl)-N^1-[2-(4-fluorophenyl)-1,1-dimethylethyl]-L-α-glutamine]
[3]; suspension 100 mg/mL in 2% Tween 80, ambient conditions, about 0.5 hr
  Polymorphic conversion / Polymorph Form after stirring: transformation of pseudo Form A to Form B
[3]; suspension 100 mg/mL in water, overnight (~18 hr), ambient conditions
  Polymorphic conversion / Polymorph Form after stirring: transformation of pseudo Form A to Form B
[4]
  Solubility, 2% Tw80: 330 µg/mL (≈ 692 µM)
  pH of 2% Tw80 solubility sample: 5.6
[5]
  Change of powder XRD pattern or melting point / polymorphic transformation: transformed to a lower melting point polymorph form
